“Also recorded” adds a separate entry of the source. Where two headings read alike, the source gives them in different places.
Key:
[1] = test system: LDH; assay: PK-PD sigmoid-Emax model, PD index LDH in MDG rats
Description: Subsequently, we incorporated the PK and PD data to conduct PK-PD modeling through DAS.
Therefore, PK-PD correlation analysis was used in this study, linking dynamic concentration–time processes and effect–time profile relationships [20, 21, 22]. […] The model adopted in this study is the S-Emax model. In the equation, γ means the shape factor in the formula, affecting the slope and determining the steepness of the curve. Emax can provide the maximum response intensity, and ED50 is for evaluating the safety of the drug, which is understood as the amount of the drug that causes 50% of the maximum response intensity.
Plasma creatine kinase (CK), hydroxybutyrate dehydrogenase (HBDH), lactate dehydrogenase (LDH), and superoxide dismutase (SOD) activity was determined using an automatic biochemical analyzer.
The activity of the CK, HBDH, LDH, and SOD of plasma samples collected at different time points was determined using an automatic biochemical analyzer for PD index evaluation. […] Two compartmental methods were used, employing the drug and statistics, which was supplied by the Chinese Pharmacological Society. Then, the efficacy indicators were fitted in the PK-PD model.

[2] = test system: SOD; assay: PK-PD sigmoid-Emax model, PD index SOD in MDG rats; type: in vivo, SD rats; set-up: Ke0: unit not given beside the values
[3] = PK of five RC components in sham operation administration (SDG, normal) rats after oral RC extract, HPLC-QQQ-MS/MS, DAS; type: in vivo, SD rats; details: rat, SDG rats, oral RC extract 2 g/kg, plasma, mean ± SD, n = 6; for AUC(0-t): read-out: AUC(0−t); for AUC(0-inf): read-out: AUC(0−∞); for CL/F: read-out: CLz/F (converted); for Cmax: read-out: Cmax; for MRT: read-out: MRT(0−); for MRT inf: read-out: MRT(0−∞); for Tmax: read-out: Tmax; for Vd/F: read-out: Vz/F; for half-life: read-out: t1/2z (converted)
Description: (§1) The drug concentration in plasma was calculated using the standard curve, and the mean blood concentration was plotted against the time to obtain the mean blood concentration–time curve (Figure 4).
(§2) The rat model of MI was made with Pit. The rats were divided into a sham operation group (SG), sham operation administration group (SDG), model group (MG), and model administration group (MDG) (n = 6 for each group). The MI model was prepared via an intraperitoneal injection (a single time) of Pit in the MG and MDG, with a dosage of 20 U/kg and a volume of 10 mL/kg. At the same time, the rats in the SG and SDG groups were given the same volume of saline in the same way.
(§3) RC extract (2 g/kg, equivalent to human clinical equivalent dose) was given to rats via oral administration in SDG and MDG, and the same volume of normal saline was orally administered to the SG and MG. Rats were fasted for 12 h before the experiment. Blood was collected from the fundus venous plexus at 0, 5, 10, 15, 30, 45 min, 1, 2, 4, 6, 8, 12, and 24 h after in gavage, placed in a centrifuge tube impregnated with heparin sodium, centrifuged at 3500 rpm for 15 min, and then the plasma was collected and divided into two parts. One part was used for biochemical index determination and the other part was used to determine the content of pharmaceutical ingredients in vivo. After the experiment, the rats were sacrificed, and the hearts were placed in paraformaldehyde for histopathological analysis.
(§4) The plasma sample of 100 μL was accurately absorbed, 50 μL internal standard solution (Nimodipine, 500 ng/mL) was added, then 300 μL acetonitrile precipitated protein was added, vortex for 10 min, placed under ultrasound for 3 min, centrifuged at 13,000 rpm for 10 min, and then the supernatant was transferred to another centrifuge tube. It was then concentrated until dry with a rotary evaporator. The residue was redissolved with 100 μL 50% acetonitrile, swirled for 1 min, placed under ultrasonic for 3 min, centrifuged at 13,000 rpm for 10 min, and the supernatant was taken for analysis.
(§5) A validated HPLC-QQQ-MS/MS method was used for the determination of drug-derived components in plasma samples at different time points. The accompanying standard curve was substituted to calculate the content of the compounds to be measured, and then the PK parameters were calculated using DAS software (version 3.2.8), and the blood concentration–time curve was plotted using GraphPad Prism (version 8.0.2). PK behavior was compared between the sham operation and model group, and PK models were established, respectively.

[4] = test system: CK; assay: PK-PD sigmoid-Emax model, PD index CK in MDG rats; type: in vivo, SD rats; set-up: Emax: unit not given beside the values
[5] = test system: HBDH; assay: PK-PD sigmoid-Emax model, PD index HBDH in MDG rats; type: in vivo, SD rats; set-up: unit not given beside the values
[6] = test system: AST; assay: PK-PD sigmoid-Emax model, PD index AST in MDG rats; type: in vivo, SD rats; set-up: unit not given beside the values
[7] = PK of five RC components in pituitrin-induced myocardial ischemia (MDG) rats after oral RC extract, HPLC-QQQ-MS/MS, DAS; type: in vivo, SD rats; details: for Change of CLZ/F in MDG compared with SDG / Change of Cmax in MDG compared with SDG: MDG vs SDG rats; for AUC(0-t) / AUC(0-inf) / CL/F / Cmax / MRT / MRT inf / Tmax / Vd/F / half-life: rat, plasma; for AUC(0-t): read-out: AUC(0−t); for AUC(0-inf): read-out: AUC(0−∞); for CL/F: read-out: CLz/F (converted); for Cmax: read-out: Cmax; for MRT: read-out: MRT(0−); for MRT inf: read-out: MRT(0−∞); for Vd/F: read-out: Vz/F; for half-life: read-out: t1/2z (converted)
Description: as §1, §2, §3, §4, §5

[8] = rat
Description: A series concentration mixed reference solution with different concentrations was added to 100 μL plasma, and was treated according to the method under Section 4.6 to obtain the matrix standard curve sample. Samples with concentrations of 400, 100, and 10 ng/mL, respectively, were taken as quality control (QC) samples of high, medium, and low concentrations (HQC, MQC, LQC). The method was validated, including linearity, inter-day/intra-day precision, repeatability, stability, extraction recovery, and matrix effect, according to FDA bioanalytical method validation guidelines.

[9] = cited from earlier work
[10] = in vivo, MDG (myocardial ischemia) rats, oral RC extract 2 g/kg, mean ± SD, n = 6
[11] = SD, po, 2 g/kg, MDG (myocardial ischemia) rats, oral RC extract 2 g/kg, mean ± SD, n = 6, read-out: Tmax
[12] = SD, po, 2 g/kg, according to the PK results, group not given, oral RC extract, read-out: Tmax (approximate)
[13] = MDG (myocardial ischemia) rats, oral RC extract 2 g/kg, mean ± SD, n = 6

## O=c1c(O)c(-c2ccc(O)cc2)oc2cc(O)cc(O)c12 [Kaempferol, kaempferol]
[1]
  Emax: 599.812
[2]
  Emax: 68.398
  Ke0: 0.115
[3]; in vivo
  AUC(0-t): 306 ± 30.5 ng·h/mL
  AUC(0-inf): 427 ± 95.4 ng·h/mL
  CL/F: 203 mL/min/kg
  Cmax: 31.2 ± 1.53 ng/mL
  MRT: 8.54 ± 0.55 h
  MRT inf: 19.4 ± 9.37 h
  Tmax: 1.67 ± 1.21 h
  Vd/F: 224 ± 107 L/kg
  half-life: 14.1 ± 8.42 h
[4]
  Emax: 2736.472
  Ke0: 2.998
[5]
  Emax: 6565.084
  Ke0: 0.928
[6]
  Emax: 1422.742
  Ke0: 2.998
[7]; oral RC extract 2 g/kg
  Change of CLZ/F in MDG compared with SDG: marked decreasing tendency; also recorded: decreased significantly
  Change of Cmax in MDG compared with SDG: increased significantly; also recorded: significantly increased
[7]; [10]
  AUC(0-t): 354 ± 50.4 ng·h/mL
  AUC(0-inf): 645 ± 179 ng·h/mL
  CL/F: 140 mL/min/kg
  Cmax: 38.4 ± 4.92 ng/mL
  MRT: 9.05 ± 0.7 h
  MRT inf: 30.9 ± 14.1 h
  Vd/F: 245 ± 67 L/kg
  half-life: 22.7 ± 10.7 h
[7]; in vivo, MDG (myocardial ischemia) rats, oral RC extract 2 g/kg, mean ± SD, n = 6, read-out: Tmax
  Tmax: 0.75 h
[8]; 10 ng/mL
  Stability RE (%): 102.9%
[8]; 400 ng/mL
  Stability RE (%): 94.57%
[8]; 48 h, 10 ng/mL
  Stability RE (%): 101.5%
[8]; 48 h, 50 ng/mL
  Stability RE (%): 90.22%
[8]; 48 h, 400 ng/mL
  Stability RE (%): 92.55%
[8]; 10 days, 50 ng/mL
  Stability RE (%): 99.12%
[8]; 10 days, 400 ng/mL
  Stability RE (%): 100.4%
[9]; modeled rats (disease state)
  AUC, MRT, t1/2, and Cmax in modeled rats: increased
  Clearance in modeled rats: decreased

## OC[C@H]1O[C@@H](OCCc2ccc(O)cc2)[C@H](O)[C@@H](O)[C@@H]1O [Salidroside, salidroside]
[1]
  Emax: 482.587
  Ke0: 2.476
[2]
  Emax: 71.79
  Ke0: 0.025
[3]
  AUC(0-t): 5710 ± 321 ng·h/mL
  AUC(0-inf): 8350 ± 2310 ng·h/mL
  CL/F: 10.7 mL/min/kg
  Cmax: 1010 ± 84.2 ng/mL
  MRT: 7.14 ± 0.51 h
  Tmax: 0.75 ± 0.16 h
  Vd/F: 15.2 ± 8.77 L/kg
  half-life: 19.9 ± 16 h
[4]
  Emax: 2288.494
  Ke0: 2.698
[5]
  Emax: 4898.547
  Ke0: 0.46
[6]
  Emax: 1091.001
  Ke0: 2.821
[7]; oral RC extract 2 g/kg
  Change of Cmax in MDG compared with SDG: increased significantly; also recorded: significantly increased
[7]; [11]
  Tmax: 0.83 ± 0.13 h
[7]; [12]
  Tmax: ~1 h
[7]; [13]
  AUC(0-t): 7790 ± 1160 ng·h/mL
  AUC(0-inf): 10000 ng·h/mL
  CL/F: 8.67 mL/min/kg
  Cmax: 1350 ± 133 ng/mL
  MRT: 6.7 ± 0.61 h
  MRT inf: 16.7 ± 9.83 h
  Vd/F: 10.7 ± 7.46 L/kg
  half-life: 15.4 ± 11.2 h
[8]; 10 ng/mL
  Stability RE (%): 90.22%
[8]; 400 ng/mL
  Stability RE (%): 99.82%
[8]; 48 h, 10 ng/mL
  Stability RE (%): 89.72%
[8]; 48 h, 50 ng/mL
  Stability RE (%): 90.35%
[8]; 48 h, 400 ng/mL
  Stability RE (%): 98.56%
[8]; 10 days, 10 ng/mL
  Stability RE (%): 88.35%
[8]; 10 days, 50 ng/mL
  Stability RE (%): 100.1%
[8]; 10 days, 400 ng/mL
  Stability RE (%): 97.63%
[9]; hypoxia
  Systemic exposure in hypoxia: increased significantly
[9]
  Bioavailability under pathological conditions: increased significantly

## OCCc1ccc(O)cc1 [Tyrosol, tyrosol]
[1]
  Emax: 483.057
  Ke0: 2.848
[2]
  Emax: 68.804
  Ke0: 0.043
[3]
  AUC(0-t): 653 ± 63.2 ng·h/mL
  AUC(0-inf): 729 ± 49.2 ng·h/mL
  CL/F: 115 mL/min/kg
  Cmax: 132 ± 12.6 ng/mL
  MRT: 5.59 ± 0.5 h
  MRT inf: 9.86 ± 5.68 h
  Tmax: 1.17 ± 0.41 h
  Vd/F: 97 ± 70.2 L/kg
  half-life: 10 ± 7.64 h
[4]
  Emax: 2289.882
  Ke0: 2.998
[5]
  Emax: 7149.416
  Ke0: 0.724
[6]
  Emax: 1213.835
  Ke0: 2.998
[7]; oral RC extract 2 g/kg
  Change of CLZ/F in MDG compared with SDG: marked decreasing tendency; also recorded: decreased significantly
[7]; [11]
  Tmax: 0.96 ± 0.1 h
[7]; [12]
  Tmax: ~1 h
[7]; [13]
  AUC(0-t): 837 ± 66.8 ng·h/mL
  AUC(0-inf): 1100 ± 258 ng·h/mL
  CL/F: 79.2 mL/min/kg
  Cmax: 143.4 ± 1.41 ng/mL
  MRT: 6.54 ± 0.91 h
  MRT inf: 16.8 ± 9.96 h
  Vd/F: 94.4 ± 44.4 L/kg
  half-life: 15.6 ± 0.79 h
[8]; 10 ng/mL
  Stability RE (%): 94.31%
[8]; 50 ng/mL
  Stability RE (%): 96.93%
[8]; 400 ng/mL
  Stability RE (%): 97.75%
[8]; 48 h, 10 ng/mL
  Stability RE (%): 85.44%
[8]; 48 h, 50 ng/mL
  Stability RE (%): 90.28%
[8]; 10 days, 10 ng/mL
  Stability RE (%): 99.52%
[8]; 10 days, 400 ng/mL
  Stability RE (%): 89.70%
[9]
  Bioavailability under pathological conditions: increased significantly

## rhodiosin
[1]
  Emax: 484.31
  Ke0: 2.998
[2]
  Emax: 72.933
  Ke0: 0.055
[4]
  Emax: 2289.293
  Ke0: 2.998
[5]
  Emax: 4335.008
  Ke0: 0.469
[6]
  Emax: 1084.02
  Ke0: 2.998

Source: PMC11124525, “Pharmacokinetic–Pharmacodynamic Correlation Analysis of Rhodiola crenulata in Rats with Myocardial Ischemia” (Pharmaceuticals, 2024)
